Source: publication PMC5103216, “Novel Agonist Bioisosteres and Common Structure-Activity Relationships for The Orphan G Protein-Coupled Receptor GPR139” (Scientific Reports, 2016)
Entries after “also recorded” stand apart in the source; their conditions may differ.

molecular target: T1, GPR139 (Homo sapiens, UniProt Q6DWJ6); test: IP-One HTRF assay measuring Gq activation in CHO-139; type: cell-based; details: IP-One HTRF assay, CHO-139, 20 mM LiCl
T1 sequence (Q6DWJ6 1-353): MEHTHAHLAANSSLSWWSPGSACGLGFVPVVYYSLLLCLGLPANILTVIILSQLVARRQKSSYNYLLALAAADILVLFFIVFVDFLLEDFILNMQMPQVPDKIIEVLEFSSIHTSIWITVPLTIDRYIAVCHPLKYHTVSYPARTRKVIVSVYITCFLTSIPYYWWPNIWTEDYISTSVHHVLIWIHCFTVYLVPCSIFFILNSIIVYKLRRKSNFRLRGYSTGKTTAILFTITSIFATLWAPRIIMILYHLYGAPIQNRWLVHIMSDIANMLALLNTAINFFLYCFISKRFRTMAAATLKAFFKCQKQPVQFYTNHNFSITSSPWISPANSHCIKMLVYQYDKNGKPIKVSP
Protocol: Figure 3 IP-One HTRF® assay measuring Gq activation. Concentration-response curves of 1a, 7c (racemic), L-Trp, L-Phe, DL43, DL126, DL24, DL22, DL132 and DL130 on (A) CHO-139 and (B) CHO-M1 in the IP-One assay (final conc of LiCl = 20 mM). The dotted line represent the [IP1] response from (A) 10 μM 1a and (B) 1 μM carbachol, which is an agonist for the muscarinic acethylcholine receptor M1 that activates the Gq coupled pathway. The graphs are means ± SEM based on three independent experiments performed in triplicates.
The IP-One assay was performed as described in the work by Thomsen et al.[28], with few modifications. Breifly, CHO-139 and CHO-M1 were detached and re-suspended to a concentration of 10 million cells/mL. 5 μL 2x concentrated compound (+40 mM LiCl) and 5 μL cell suspension (50,000 cells/well) was mixed. The plate was sealed and incubated at 37 °C for 1 hour. Next, 10 μL detection reagents (lysis buffer containing 2.5% Eu^3+-anti-IP1 antibody and 2.5% IP1-d2) was added and the plate was incubated for 1 hour at room temperature. The plate was read on an Envision (PerkinElmer, Waltham, MA, USA). The time resolved-fluorescence resonance energy transfer (TR-FRET) 665 nm/615 nm ratio, which is inversely proportional to the inositol monophosphate (IP1) accumulation, was used to determine the concentration of the IP1 response.

Structure (SMILES) | EC50
CC(NC(=O)CNC(=O)c1cccc(Cl)c1)c1ccccc1 (racemic) [7c (racemic)] | 0.49 µM

same assay, conditions: IP-One HTRF assay; relative to compound 1a; 7c at 10 μM and L-Trp at 20 mM (highest concentration tested)

Structure (SMILES) | Emax
CC(NC(=O)CNC(=O)c1cccc(Cl)c1)c1ccccc1 (racemic) [7c (racemic)] | 120^(*) %

same assay, conditions: IP-One assay, compared to compound 1a

Structure (SMILES) | agonist type
CC(NC(=O)CNC(=O)c1cccc(Cl)c1)c1ccccc1 (racemic) [7c (racemic)] | super-agonists

molecular target: T1, GPR139; test: Fluo-4 Ca2+-assay in CHO-k1 cells stably expressing GPR139 (CHO-GPR139); type: cell-based; details: CHO-GPR139
Protocol: Compound 1a[11] was kindly provided by H. Lundbeck A/S, Denmark. Compound 7c (Enamine no: Z31449867) was tested as a racemate, as the (S)-form described by Janssen et al. was not commercially available. All compounds were dissolved to 20 mM in DMSO (Sigma, D2650) and subsequently diluted in a HEPES buffer (HBSS (Invitrogen, 14025) supplemented with 20 mM HEPES + 1 mM MgCl2 + 1 mM CaCl2, pH = 7.4) to a final concentration 0.5% DMSO in the assay. The DMSO level was kept constant for all concentrations of all compounds. DMSO was confirmed not to have any activity by itself at this concentration. L-Tryptophan (T0254) and L-Phenylalanine (P2126) were obtained from Sigma-Aldrich and dissolved directly in buffer.
All compounds were tested on a CHO-k1 cell line stably expressing GPR139 (CHO-GPR139) kindly provided by H. Lundbeck A/S, Denmark, and also on a CHO-k1 cell line stably expressing the M1 receptor (CHO-M1) (The Missouri S&T cDNA Resource Center, #CEM100TN00) to check for specificity. The CHO-GPR139 was grown in Dulbecco’s modified eagle medium (DMEM) F12-Kaighn’s (Gibco, 21127) supplemented with 10% dialysed fetal bovine serum (Gibco, 26400, United States origin), 1% GlutaMAX^TM-I (100X) (Gibco, 35050), and 100 units/mL penicillin and 100 μg/mL streptomycin (Gibco, 15140) and 1.0 mg/mL geneticin (Invitrogen, 1181103). CHO-M1 was grown in Ham’s F12 (Gibco, 21765) supplemented with 10% fetal bovine serum (Gibco, 10270, South America origin) +100 units/mL penicillin and 100 μg/mL streptomycin (Invitrogen, 15140–122) and 0,25 mg/mL geneticin (Life Technologies, 11811–031). Compound 1a and carbamoylcholine chloride (Sigma-Aldrich, C4382) were used as positive controls in the two cell lines, respectively.
30.000 cells/well were plated in black 96-well plates with flat clear bottoms (Corning, Falcon, 353219) and incubated overnight. The Fluo-4 dye loading solution (Invitrogen, F36206) was prepared according to the manufacturer’s instructions by dissolving it in HEPES buffer supplemented with 2.5 mM probenecid. 50 μL dye loading solution was added to each well. Cells were incubated with the Fluo-4 dye for 60 min at 37 °C, then washed with 100 μL HEPES buffer. 100 μL HEPES buffer supplemented with 2.5 mM probenecid was then added to each well and incubated in 10 minutes at 37 °C before measurement. 33 μL of the test compounds (4x concentrated) were added automatically after baseline measurements. Intracellular calcium change was recorded on a NOVOstar instrument (BMG Labtech) at 37 °C with an excitation filter of 485 nm and an emission filters 520 nm. Data originate from three independent experiments in triplicates.

Structure (SMILES) | GPR139 agonist activity (in words)
COc1cc(OC)cc(C(=O)NNC(=O)c2cccc3ccccc23)c1 [DL96] | loss of activity; also recorded: Inactive

same assay, conditions: CHO-GPR139, mean of at least three experiments

EC50 | Structure (SMILES)
1.16 µM | O=C(CN1CCCc2ccccc21)NNC(=O)c1ccc2[nH]cnc2c1 [DL144]
1.02 µM | CCn1c(C)nc2cc(C(=O)NNC(=O)Cc3coc4ccc5ccccc5c34)ccc21 [DL85]
1.22 µM | C=C(C)c1cccc(C(C)(C)NC(=O)NNC(=O)c2ccc3c(c2)nc(C)n3CC)c1 [DL148]
4.72 µM | CCn1c(C)nc2cc(C(=O)NNC(=O)CC(C)c3ccccc3)ccc21 (stereo not drawn) [DL146]
1.5 µM | COc1cc(OC)cc(C(=O)NCCC(=O)N2CCCc3ccccc32)c1 [DL154]
1.09 µM | CN(C(=O)CNC(=O)c1ccc2c(c1)OCO2)C1CCc2ccccc21 (stereo not drawn) [DL131]

same assay, conditions: CHO-K1, relative to 1a

Emax | Structure (SMILES)
96% | O=C(CN1CCCc2ccccc21)NNC(=O)c1ccc2[nH]cnc2c1 [DL144]
95% | CCn1c(C)nc2cc(C(=O)NNC(=O)Cc3coc4ccc5ccccc5c34)ccc21 [DL85]
100% | C=C(C)c1cccc(C(C)(C)NC(=O)NNC(=O)c2ccc3c(c2)nc(C)n3CC)c1 [DL148]
85% | CCn1c(C)nc2cc(C(=O)NNC(=O)CC(C)c3ccccc3)ccc21 (stereo not drawn) [DL146]
91% | COc1cc(OC)cc(C(=O)NCCC(=O)N2CCCc3ccccc32)c1 [DL154]
101% | CN(C(=O)CNC(=O)c1ccc2c(c1)OCO2)C1CCc2ccccc21 (stereo not drawn) [DL131]

same assay, conditions: values in Figure 5 and Supplementary Chart 1

EC50 | Structure (SMILES)
4.71 µM | CCn1c(C)nc2cc(C(=O)NNC(=O)CC(C)c3ccccc3)ccc21 (stereo not drawn) [DL146]

same assay, conditions: values in text

EC50 | Structure (SMILES)
1.02 µM | CCn1c(C)nc2cc(C(=O)NNC(=O)Cc3coc4ccc5ccccc5c34)ccc21 [DL85]
> 10 µM | CCN1C(C)=NC2C=C(C(=O)NNC(=O)c3c(-c4ccccc4)noc3C)C=CC21 (stereo not drawn) [DL83]

molecular target: T1, GPR139; test: not given; design: method as in ref 13, 14 (Dvorak et al.); details: mean of at least three experiments; 14 (Dvorak et al.); cited from earlier work

Structure (SMILES) | EC50
C[C@H](NC(=O)CNCc1cccc(Cl)c1)c1ccccc1 [compound 8] | > 10 µM
C[C@H](NCCNC(=O)c1cccc(Cl)c1)c1ccccc1 [compound 9] | > 10 µM

same assay, conditions: relative to L-Trp; 14 (Dvorak et al.); cited from earlier work

Structure (SMILES) | Emax
C[C@H](NC(=O)CNC(=O)c1cc(Cl)cc(Br)c1)c1ccccc1 [7p] | 113%
C[C@H](NC(=O)CNC(=O)c1ccc(Cl)cc1)c1ccccc1 [7d] | 117%
C[C@H](NC(=O)CNC(=O)c1cccc(Cl)c1Cl)c1ccccc1 [7k] | 113%
C[C@H](NC(=O)CNC(=O)c1cc(Cl)ccc1Cl)c1ccccc1 [7m] | 139%
C[C@H](NC(=O)CNC(=O)c1cc(F)cc(Cl)c1)c1ccccc1 [7o] | 124%
COc1cccc(C(=O)N[C@@H](C)C(=O)N[C@@H](C)c2ccccc2)c1 [compound 10] | 143%
C[C@H](NC(=O)CNC(=O)c1cccc(F)c1)c1ccccc1 [7g] | 118%
C[C@H](NC(=O)CNC(=O)c1cccc(C(F)(F)F)c1)c1ccccc1 [7i] | 134%
C[C@H](NC(=O)CNC(=O)c1cc(Cl)cc(Cl)c1)c1ccccc1 [7n] | 119%
C[C@H](NC(=O)CNC(=O)c1cccc(C#N)c1)c1ccccc1 [7f] | 129%
COc1cccc(C(=O)NCC(=O)N[C@@H](C)c2ccccc2)c1 [7h] | 146%
C[C@H](NC(=O)CNC(=O)c1cccc(OC(F)(F)F)c1)c1ccccc1 [7j] | 129%
C[C@H](NC(=O)CNC(=O)c1ccc(Cl)c(Cl)c1)c1ccccc1 [7l] | 106%
COc1cccc(C(=O)N[C@H](C)C(=O)N[C@@H](C)c2ccccc2)c1 [compound 11] | 88%
COc1cccc(C(=O)N[C@@H](CO)C(=O)N[C@@H](C)c2ccccc2)c1 [compound 12] | 107%
Cc1cccc(C(=O)NCC(=O)N[C@@H](C)c2ccccc2)c1 [7e] | 137%
COc1cc(OC)cc(C(=O)NCC(=O)N[C@@H](C)c2ccccc2)c1 [7q] | 149%
C[C@H](NC(=O)CNC(=O)c1ccccc1)c1ccccc1 [7a] | 130%
